# Assay results reported in US11629141B2, “Proteasome inhibitors and uses thereof” (CORNELL UNIVERSITY, priority 2015, dated 2023).
# pEC50, pIC50: −log10 of the molar value. Entries after “also recorded” stand apart in the source; their conditions may differ.
# Legend:
# [1] = biological target: T1, human constitutive proteasome β5c (Homo sapiens, UniProt P28074); assay: IC50 against chymotryptic β5c activity of human constitutive proteasome (96-well plate, Suc-LLVY-AMC); assay type: biochemical; details: β5c; substrate Suc-LLVY-AMC; read-out: IC50 Hu c-20S (Suc-LLVY-AMC)
# T1 construct: purchased Boston Biochem Inc
# Method: A 96-well-plate assays were used to determine the IC50s against the chymotryptic β5 activities of the proteasomes. Both human constitutive proteasome and immunoproteasome were purchased from Boston Biochem Inc. 1 μL of 100× compound in DMSO at designated concentrations were spotted at the bottom of the wells. DMSO was used as a control. Final concentrations of the inhibitors were from 100 μM to 0.098 μM. The hydrolysis of the substrate over time in each well was monitored at excitation 360 nm, emission 460 nm for 90 minutes. IC50s were estimated by fitting the velocities of hydrolysis against compound concentrations using PRISM. […] Suc-LLVY-AMC was used for βc at final concentration of 25 μM, and Ac-ANW-AMC for b5i at final concentration of 15 μM. SDS (0.02%) was used as activator, and 0.01% BSA was used in the reaction buffer.
# The foregoing features of these AsnEDA encouraged a further round of SAR studies (Table 5) based on varying the carboxylic acid at the ethylenediamine, the N-cap at the Asn, and the side chain of the Asn, based on PKS21004. All compounds listed in the Table 5 were synthesized as described in Examples 6-77. All final compounds were confirmed by NMR and HRMS. IC50s of all compounds against β5i and β5c (Table 5), β1i, β2i, β1c and β2c were determined following a reported method (Lin et al., “N,C-Capped Dipeptides With Selectivity for Mycobacterial Proteasome Over Human Proteasomes: Role of S3 and S1Binding Pockets,” J Am Chem Soc. 135:9968-9971 (2013), which is hereby incorporated by reference in its entirety). […] The [1,1′-biphenyl]-3-carboxamide of PKS21004 was then modified with the following substituents: 4′-fluoro (PKS21026), 4′-cyano (PKS21028), 4-fluoro (PKS21196), 4,3′-difluoro (PKS21195) and 4,2′-difluoro (PKS21187).
# [2] = biological target: T2, human immunoproteasome β5i (Homo sapiens, UniProt P28062); assay: IC50 against chymotryptic β5i activity of human immunoproteasome (96-well plate, Ac-ANW-AMC); assay type: biochemical; details: β5i; substrate Ac-ANW-AMC; read-out: IC50 Hu i-20S (Ac-ANW-AMC)
# T2 construct: purchased Boston Biochem Inc
# Method: A 96-well-plate assays were used to determine the IC50s against the chymotryptic β5 activities of the proteasomes. Both human constitutive proteasome and immunoproteasome were purchased from Boston Biochem Inc. 1 μL of 100× compound in DMSO at designated concentrations were spotted at the bottom of the wells. DMSO was used as a control. […] The hydrolysis of the substrate over time in each well was monitored at excitation 360 nm, emission 460 nm for 90 minutes. IC50s were estimated by fitting the velocities of hydrolysis against compound concentrations using PRISM. […] SDS (0.02%) was used as activator, and 0.01% BSA was used in the reaction buffer.
# Plasmodium falciparum = assay: Growth of Plasmodium falciparum in red blood cells (SYBR Green, 72 hours); assay type: cell-based; details: Erythrocyte, P.f. 3D7, growth in red blood cells, read-out: EC50 (nM) (P.f.)
# Method: Continuous in vitro cultures of Plasmodium falciparum: were maintained in human red blood cells (RBC) diluted to a hematocrit of 5% in RPMI 1640 medium with HEPES and Hypoxanthine and completed with 0.5% Albumax II (Invitrogen), 0.25% sodium bicarbonate, and 0.1 mg/ml gentamicin. Parasites were incubated at 37° C. in a gas mixture of 5% oxygen, 5% carbon dioxide, and 90% nitrogen.
# Parasite sensitivity to novel compounds were determined using a SYBR Green (Invitrogen S1046) drug assay protocol. P. falciparum of various clinic stains were cultured with compounds at concentrations in a series of dilution in a clear, sterile 96-well plate for 72 hours. Subsequently, 150 μl of the cultures were transferred to a black 96-well plate and placed in the freezer for red blood cell lysis. The plates were thawed and suspended in a Sybr Green Lysis buffer. GraphPad Prism was used to analyze the raw data collected […]. Drug concentrations were converted to logarithms, normalized, and then curve fitted by non-linear regression to obtain EC50 values.
# Plasmodium falciparum: parasites were cultured in human red cells. Drug assays were run in 96 well plates at a total volume of 200 μl. Assays were set up at a starting parasitemia (percent of infected red cells) of 0.5%. Test compounds were plated at concentrations of 2778 nM to 0.4 nM. The test plates were grown under standard low oxygen conditions at 37° C. for 72 hours. At that time the plates were prepared for growth determination, first the plates were frozen and thawed to lyse the red blood cells, 150 μl of the lysed thawed culture was transferred to a black 96 well plate, and mixed in a lysis buffer with SYBR green DNA dye. The fluorescence of each well was recorded in a plate reader with excitation wavelength 490 nm and emission wavelength 530 nm and normalized relative to DMSO control. The EC50s were determined using Prism software.
# Pf Gametocytes = assay: Gametocyte killing assay (DilC1(5), flow cytometry); assay type: cell-based; details: Plasmodium falciparum; NF54 peg4-tdTomato, 72 hour incubation; read-out: EC50 against Pf Gametocytes
# Method: Asexual replication of NF54 peg4-tdTomato parasites was eliminated by treating with 50 mM GlcNAc and 20 U/mL Heparin for 3 days. NF54 peg4-tdTomato parasites then were maintained using standard culture techniques. Gametocytes were induced synchronously according to Fivelman et al., “Improved Synchronous Production of Plasmodium Falciparum Gametocytes in Vitro,” Mol Biochemo Parasitol. 154(1):119-123 (2007), which is hereby incorporated by reference in its entirety. Asexual replication was eliminated by treating with 50 mM GlcNAc for 3 days. Gametocyte killing assays were setup on days 5 and 10 in triplicate 96-well format at 1% hematocrit and 2% gametocytemia. Compounds were setup in triplicate and serially diluted 3-fold. In addition, 6 solvent controls (DMSO) were distributed evenly across the plate. Following a 72 hour incubation, Stage III-IV (Day 5-7) and Stage IV-V (Day 10-12), (start the incubation in the afternoon on Day 5 and Day 10, take out plate for assay on Day8 and Day13 afternoon) cultures were stained with 16 nM Hoechst 33342 and 50 nM DilC1(5) for 30 min at 37 C. Using a Cytek DxP12 flow cytometer, gametocytemia was determined by gating for DNA+, hemozoin-high cells and gametocyte viability was inferred based on mitochondrial membrane potential-dependent accumulation of DilC1(5) for 2000-3000 gametocytes (Tanaka et al., “Potent Plasmodium Falciparum Gametocytocidal Activity of Diaminonaphthoquinones, Lead Antimalarial Chemotypes Identified in an Antimalarial Compound Screen,” Antimicrob. Agents Chemother. 2015, 59:1389 (2015), which is hereby incorporated by reference in its entirety). Mean DilC1(5) signal was normalized to solvent control and the overall minimum and used to calculate the EC50 (FIG. 3 and Table 4).
# Pf20S β5 = assay: Labeling of Pf20S active subunits by activity probe MV151 in Pf lysates; assay type: biochemical, P. falciparum; details: 1 hour with inhibitor, then MV151 (2 μM) 1 hour
# Method: Pf lysates were incubated with inhibitors at indicated concentrations for 1 hour prior to incubation with MV151 (2 μM) for an additional hour. SDS pages were scanned on a Typhoon fluorescent scanner. […] BTZ was used as a positive control.
pIC50 [1],pIC50 [2],Compound,EC50 (Plasmodium falciparum) [nM],pEC50 (Pf Gametocytes),labeling of Pf20S β5 by MV151 (Pf20S β5)
6.29,7.72,Cc1ccc(S(=O)(=O)N[C@@H](CC(=O)NC(C)(C)C)C(=O)NCCNC(=O)c2cc(-c3ccccc3)ccn2)cc1 [PKS21229],1,,
6.28,7.26,Cc1ccc(S(=O)(=O)N[C@@H](CC(=O)NC(C)(C)C)C(=O)NCCNC(=O)c2ccccc2F)cc1 [PKS21291],11,,
6.73,7.82,Cc1ccc(S(=O)(=O)N[C@@H](CC(=O)NC(C)(C)C)C(=O)NCCNC(=O)c2ccccc2O)cc1 [PKS21292],2.9,,

Compound,pIC50 [1],pIC50 [2],EC50 (Plasmodium falciparum) [nM],pEC50 (Pf Gametocytes),labeling of Pf20S β5 by MV151 (Pf20S β5)
Cc1cc(C(=O)N[C@@H](CC(=O)NC(C)(C)C)C(=O)NCCNC(=O)c2cccc(-c3cc[nH]n3)c2)no1 [PKS21287],4.68,5.94,34,6.69,block labeling; also recorded: dose-dependently inhibited the labeling
